We go through 15 compounds from PubChem BioAssay (NCI).

Each structure is given as a SMILES string.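 Growth conditions: 96-well plates. Treatment: test compound, 48 hours, 5 concentrations. Analysis: linear interpolation between bracketing concentrations; unreached endpoints set to highest concentration. The concentration for full growth arrest is given as TGI.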

Some test systems named below: 786-0 renal; BT-549 breast; CAKI-1 renal; K-562 leukemia; KM12 colon; M14 melanoma; NCI-H226 lung; OVCAR-3 ovarian; PC-3 prostate; SR leukemia.
What all share (test): inhibition of tumour cell growth, NCI panel, 48 h

On to `COc1ccc(C=Nc2ccc(-c3nc4ccccc4[nH]3)cc2)cc1OC`, for which the TGI in the experiment with 786-0 renal, with BT-549 breast, in the experiment with CAKI-1 renal, in the experiment with K-562 leukemia, in the experiment on KM12 colon and with M14 melanoma was over 100 µM each time. The TGI in the experiment on NCI-H226 lung, in the experiment with OVCAR-3 ovarian, in the experiment on PC-3 prostate and with SR leukemia was over 100 µM in each case.

For `O=[N+]([O-])/C=C/c1cn(CCCCCn2cc(/C=C/[N+](=O)[O-])c3ccccc32)c2ccccc12`, the TGI in the experiment on 786-0 renal is 1.35 µM; in the experiment with BT-549 breast, 6.72 µM; in the experiment with CAKI-1 renal, over 53.6 µM; in the experiment with K-562 leukemia, 3.7 µM; in the experiment with KM12 colon it was 3.94 µM; in the experiment on M14 melanoma it was 15.1 µM. Also, the TGI is 4.36 µM in the experiment on NCI-H226 lung, 4.66 µM in the experiment with OVCAR-3 ovarian, 15 µM with PC-3 prostate and over 100 µM in the experiment on SR leukemia.

On to `O=P(O)(O)CN1CCNCCN(CP(=O)(O)O)CCNCC1`, for which the TGI in the experiment on 786-0 renal, in the experiment with BT-549 breast, in the experiment with CAKI-1 renal, with K-562 leukemia, with KM12 colon and in the experiment with M14 melanoma was over 100 µM throughout. In addition, the TGI in the experiment with NCI-H226 lung was over 94.9 µM; with OVCAR-3 ovarian it was over 100 µM; in the experiment on PC-3 prostate, over 100 µM; with SR leukemia, 4.16 µM.

Regarding `CC1(C)CCC2(C(=O)OC3OC(CO)C(O)C(O)C3O)CCC3(CO)C(=CCC4C5(C)CC(O)C(O)C(C)(C(=O)OC6OC(CO)C(O)C(O)C6O)C5CCC43C)C2C1` (stereo not given), the TGI in the experiment with 786-0 renal, in the experiment on BT-549 breast, in the experiment with CAKI-1 renal, in the experiment on K-562 leukemia, in the experiment on KM12 colon and with M14 melanoma was over 100 µM throughout. The TGI in the experiment on NCI-H226 lung, in the experiment with OVCAR-3 ovarian, in the experiment on PC-3 prostate and in the experiment on SR leukemia was over 100 µM each time.

Regarding `O=C1C=C(N2CCN(c3ccccn3)CC2)C(=O)c2c(O)ccc(O)c21`, the TGI with 786-0 renal is 42.9 µM; in the experiment with BT-549 breast it was over 100 µM; in the experiment with CAKI-1 renal, over 46.4 µM; in the experiment on K-562 leukemia, 36.2 µM; with KM12 colon it was over 46.4 µM; with M14 melanoma, over 48.2 µM. Besides, the TGI with NCI-H226 lung is over 56.2 µM; in the experiment on OVCAR-3 ovarian, 20.3 µM; in the experiment with PC-3 prostate it was over 56.2 µM; with SR leukemia, over 50.7 µM.

In the case of `COc1ccc(/C=C2\CCC(CNc3ccc(Br)cc3)C2=O)cc1` (stereo not given), the TGI in the experiment with 786-0 renal, in the experiment on BT-549 breast, in the experiment with CAKI-1 renal, in the experiment with K-562 leukemia, in the experiment with KM12 colon and in the experiment on M14 melanoma was over 100 µM in each case. In addition, the TGI is over 100 µM in the experiment with NCI-H226 lung, over 100 µM with OVCAR-3 ovarian, over 100 µM in the experiment with PC-3 prostate and 87.2 µM with SR leukemia.

Turning to `Cc1ccc(S(=O)(=O)N/N=C2\C3CC4CC(C3)C2C4)cc1` (stereo not given), the TGI with 786-0 renal, in the experiment with BT-549 breast, in the experiment with CAKI-1 renal, in the experiment with K-562 leukemia, with KM12 colon and with M14 melanoma was over 100 µM in each case. For the same compound, the TGI with NCI-H226 lung, in the experiment with OVCAR-3 ovarian, in the experiment on PC-3 prostate and with SR leukemia was over 100 µM throughout.

Regarding `CCN(CC)CCN(C)CCc1ccc(Br)cc1`, the TGI in the experiment with 786-0 renal is over 100 µM; in the experiment on BT-549 breast, over 100 µM; in the experiment with CAKI-1 renal, over 100 µM; in the experiment with K-562 leukemia, over 100 µM; in the experiment on KM12 colon, over 100 µM; in the experiment with M14 melanoma it was 33.1 µM. In addition, the TGI in the experiment on NCI-H226 lung, with OVCAR-3 ovarian, in the experiment with PC-3 prostate and in the experiment on SR leukemia was over 100 µM throughout.

For `Cc1ccc(/C=C2\CN(C)CC3C2=NC(=S)NC3c2ccc(C)cc2)cc1` (stereo not given), the TGI in the experiment on 786-0 renal, in the experiment on BT-549 breast, with CAKI-1 renal, in the experiment with K-562 leukemia, in the experiment with KM12 colon and in the experiment with M14 melanoma was over 100 µM throughout. Further, the TGI in the experiment on NCI-H226 lung, in the experiment on OVCAR-3 ovarian, in the experiment on PC-3 prostate and in the experiment on SR leukemia was over 100 µM throughout.

Consider `CC1=C2NCN(C)N=C2C(C#N)(C#N)C1(C#N)C#N`, for which the TGI with 786-0 renal is 37.7 µM; with BT-549 breast, 44.5 µM; in the experiment with CAKI-1 renal it was 17.9 µM; in the experiment on K-562 leukemia, over 100 µM; in the experiment with KM12 colon, over 100 µM; with M14 melanoma, over 66.4 µM. The TGI with NCI-H226 lung is over 100 µM; in the experiment on OVCAR-3 ovarian, 66.8 µM; in the experiment with PC-3 prostate, 72.8 µM; with SR leukemia, 35.8 µM.

As to `CO[P@]1(=O)O[C@@H](c2ccccc2)[C@H](O)[C@@]1(O)c1ccccc1`, the TGI in the experiment on 786-0 renal, with BT-549 breast, with CAKI-1 renal, with K-562 leukemia, with KM12 colon and with M14 melanoma was over 100 µM in each case. The TGI in the experiment on NCI-H226 lung, in the experiment with OVCAR-3 ovarian, in the experiment with PC-3 prostate and in the experiment with SR leukemia was over 100 µM each time.

`CCCNC(=O)CCC(C)[C@H]1CCC2C3C(C[C@H](OC(C)=O)[C@@]21C)[C@@]1(C)CCC2(C[C@H]1C[C@H]3OC(C)=O)OOC1(CCCCC1)OO2` (stereo not given in full): the TGI with 786-0 renal was 6.53 µM; with BT-549 breast it was 12.4 µM; in the experiment on CAKI-1 renal, 1.54 µM; in the experiment with K-562 leukemia, over 60.8 µM; in the experiment on KM12 colon it was 3.56 µM; with M14 melanoma, over 100 µM. Also, the TGI in the experiment with NCI-H226 lung was over 57.2 µM; with OVCAR-3 ovarian, 5.3 µM; in the experiment with PC-3 prostate, 7.08 µM; in the experiment with SR leukemia, 4.7 µM.

For the compound `Cc1c2cccc-2ccc2c1[nH]c1ccccc12`, the TGI with 786-0 renal was determined as 10.1 µM; with BT-549 breast it was 9.56 µM; with CAKI-1 renal, 19.3 µM; in the experiment with K-562 leukemia, 11 µM; with KM12 colon, 5.57 µM; in the experiment with M14 melanoma, 3.7 µM. In addition, the TGI in the experiment with NCI-H226 lung worked out at 3.92 µM; in the experiment on OVCAR-3 ovarian, 6.03 µM; with PC-3 prostate it was 3.45 µM; in the experiment with SR leukemia it was 18.9 µM.

As for `O=C1OI(C#Cc2ccccc2)c2ccccc21`, the TGI in the experiment with 786-0 renal is 11.2 µM; in the experiment on BT-549 breast, 8.22 µM; in the experiment on CAKI-1 renal, 6.5 µM; with K-562 leukemia, 6.7 µM; in the experiment with KM12 colon it was 9.31 µM; in the experiment on M14 melanoma, over 49.8 µM. Also, the TGI in the experiment with NCI-H226 lung was determined as 19 µM; in the experiment on OVCAR-3 ovarian, 10.6 µM; in the experiment with PC-3 prostate it was 18.3 µM; in the experiment on SR leukemia, 5.53 µM.

As for `COC1=CC(=O)C2=C(C1=O)[C@H]1CC[C@]3(C)[C@@H](OC(C)=O)CC[C@H]3[C@@H]1CC2`, the TGI in the experiment with 786-0 renal, with BT-549 breast, in the experiment on CAKI-1 renal, in the experiment on K-562 leukemia, in the experiment on KM12 colon and with M14 melanoma was over 100 µM in each case. The TGI in the experiment on NCI-H226 lung, with OVCAR-3 ovarian, with PC-3 prostate and in the experiment with SR leukemia was over 100 µM throughout.
